Experimental data taken from patent US20240383901A1, “SUBSTITUTED PYRROLO[2,3-D]PYRIMIDINES, THEIR PREPARATION AND THEIR THERAPEUTIC APPLICATION” (SANOFI, priority 2021, published 2024).

Assays:
full-length LRRK2 G2019S = target: T1, full-length LRRK2 G2019S (Homo sapiens, UniProt Q5S007, G2019S); experiment: LRRK2-G2019S kinase activity assay (Lanthascreen TR-FRET); type: biochemical; conditions: 1.1 mM ATP
T1 construct: DYKDDDDK (FLAG)
Experimental: (§1) The potency of compounds was evaluated in vitro using the Lanthascreen® technology (ThermoFisher Scientific).
(§2) In a typical experiment, the reaction assay buffer contains 50 mM Tris pH8.2, 1 mM EGTA, 2.5 mM MgCl2, 0.05% Triton X100, 0.15% BSA and 1 mM DTT. The detection of the assay is performed using 1 nM Terbium labeled anti-phospho-LRRKtide (ThermoFisher Scientific) diluted in a TR-FRET buffer (ThermoFisher Scientific).
(§3) The experimental procedure was performed with Greiner small volume® 384-well. […] The working solution of compounds was prepared in a separate Greiner microplate.
(§4) The kinase reaction was initiated by addition of the ATP/LRRKtide substrate mix diluted in the reaction assay buffer. The reaction mix was incubated for at least 10 minutes at room temperature (initial velocity conditions). Reaction was stopped by addition of Terbium labeled anti-phospho-LRRKtide diluted into the detection buffer supplemented with EDTA (ThermoFisher Scientific). Plates are incubated for at least 30 minutes at room temperature and read on an Envision™ multimode plate reader (PerkinElmer) with LanthaScreen™. The TR-FRET 520:495 nm emission ratio was calculated and used to determine the IC50 value from a dose response curve fit to the 4-parameter logistic equation. The activity with respect to LRRK2 kinase in this test is given by the concentration which inhibits 50% of the LRRK2 activity (or IC50) in nM.

[1] = target: T2, full-length LRRK2 wild type (Homo sapiens, UniProt Q5S007); experiment: LRRK2 WT assay (Assay A, Lanthascreen TR-FRET, 500 uM ATP); type: biochemical; conditions: Assay A (values without *)
T2 construct: DYDDDDK tagged full-length LRRK2 wild type is used
T2 sequence (Q5S007 whole entry): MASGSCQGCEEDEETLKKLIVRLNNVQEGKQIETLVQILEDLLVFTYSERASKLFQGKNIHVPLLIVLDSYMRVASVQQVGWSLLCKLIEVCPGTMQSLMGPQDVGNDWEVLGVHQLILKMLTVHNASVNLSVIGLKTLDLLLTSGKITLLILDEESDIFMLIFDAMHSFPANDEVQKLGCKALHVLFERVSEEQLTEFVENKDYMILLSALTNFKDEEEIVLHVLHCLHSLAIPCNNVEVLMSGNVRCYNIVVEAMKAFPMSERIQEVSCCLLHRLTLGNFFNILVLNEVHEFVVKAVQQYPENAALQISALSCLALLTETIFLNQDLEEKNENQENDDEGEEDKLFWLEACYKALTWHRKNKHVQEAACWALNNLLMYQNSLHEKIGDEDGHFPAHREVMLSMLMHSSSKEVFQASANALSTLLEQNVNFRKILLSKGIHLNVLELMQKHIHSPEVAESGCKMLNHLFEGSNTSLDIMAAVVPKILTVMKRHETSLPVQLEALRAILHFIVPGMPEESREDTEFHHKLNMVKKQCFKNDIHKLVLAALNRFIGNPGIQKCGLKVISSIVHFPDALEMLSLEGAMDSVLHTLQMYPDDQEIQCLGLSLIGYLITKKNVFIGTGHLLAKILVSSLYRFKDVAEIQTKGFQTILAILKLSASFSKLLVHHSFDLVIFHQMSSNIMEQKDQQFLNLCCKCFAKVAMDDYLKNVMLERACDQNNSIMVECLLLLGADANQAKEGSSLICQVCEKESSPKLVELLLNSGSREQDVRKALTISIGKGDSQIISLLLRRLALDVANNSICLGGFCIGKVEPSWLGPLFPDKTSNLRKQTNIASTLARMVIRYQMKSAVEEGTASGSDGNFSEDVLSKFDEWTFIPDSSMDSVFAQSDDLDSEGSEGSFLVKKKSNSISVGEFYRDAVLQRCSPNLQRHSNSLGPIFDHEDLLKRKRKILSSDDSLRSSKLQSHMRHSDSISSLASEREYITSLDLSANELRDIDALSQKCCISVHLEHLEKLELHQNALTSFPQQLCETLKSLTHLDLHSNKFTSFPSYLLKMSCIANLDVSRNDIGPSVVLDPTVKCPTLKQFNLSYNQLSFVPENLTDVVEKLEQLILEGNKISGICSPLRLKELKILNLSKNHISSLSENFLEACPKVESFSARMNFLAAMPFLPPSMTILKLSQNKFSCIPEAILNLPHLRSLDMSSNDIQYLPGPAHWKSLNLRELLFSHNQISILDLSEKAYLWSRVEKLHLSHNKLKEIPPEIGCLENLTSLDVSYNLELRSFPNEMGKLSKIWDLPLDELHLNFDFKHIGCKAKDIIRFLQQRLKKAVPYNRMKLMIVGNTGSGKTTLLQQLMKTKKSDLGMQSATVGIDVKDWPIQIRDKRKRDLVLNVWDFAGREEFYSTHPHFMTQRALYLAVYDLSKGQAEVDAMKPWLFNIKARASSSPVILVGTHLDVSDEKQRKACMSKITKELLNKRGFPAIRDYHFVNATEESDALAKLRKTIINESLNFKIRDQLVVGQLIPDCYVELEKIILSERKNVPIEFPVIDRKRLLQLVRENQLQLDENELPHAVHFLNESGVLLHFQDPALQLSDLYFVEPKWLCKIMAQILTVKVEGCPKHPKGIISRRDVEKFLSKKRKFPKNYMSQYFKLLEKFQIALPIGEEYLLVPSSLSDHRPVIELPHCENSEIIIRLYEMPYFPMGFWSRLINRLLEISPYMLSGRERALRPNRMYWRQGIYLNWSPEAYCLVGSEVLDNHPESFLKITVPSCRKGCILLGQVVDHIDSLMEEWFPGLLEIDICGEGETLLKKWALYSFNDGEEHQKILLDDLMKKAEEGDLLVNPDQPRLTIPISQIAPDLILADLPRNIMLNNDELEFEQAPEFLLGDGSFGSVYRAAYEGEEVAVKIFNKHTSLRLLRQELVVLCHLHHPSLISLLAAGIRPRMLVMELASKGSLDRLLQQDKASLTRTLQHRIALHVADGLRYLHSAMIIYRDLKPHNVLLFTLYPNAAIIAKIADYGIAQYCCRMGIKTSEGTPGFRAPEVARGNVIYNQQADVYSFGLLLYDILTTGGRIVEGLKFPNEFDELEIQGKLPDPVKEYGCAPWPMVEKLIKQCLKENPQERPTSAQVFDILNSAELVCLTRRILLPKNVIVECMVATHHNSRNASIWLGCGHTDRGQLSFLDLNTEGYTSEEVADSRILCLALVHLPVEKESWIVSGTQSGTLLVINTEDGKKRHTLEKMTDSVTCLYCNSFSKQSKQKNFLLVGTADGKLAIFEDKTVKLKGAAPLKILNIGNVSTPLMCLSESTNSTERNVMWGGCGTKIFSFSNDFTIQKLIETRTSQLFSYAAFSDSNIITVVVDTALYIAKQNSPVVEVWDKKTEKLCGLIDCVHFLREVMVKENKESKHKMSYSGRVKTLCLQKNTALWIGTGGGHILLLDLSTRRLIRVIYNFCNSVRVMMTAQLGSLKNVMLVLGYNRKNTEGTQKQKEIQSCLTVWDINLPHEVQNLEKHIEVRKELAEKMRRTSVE
Experimental: as §1, §2, §3, §4

T1 sequence (Q5S007 whole entry G2019S): as the sequence (Q5S007 whole entry) above, with G2019S counted along it

| Structure (SMILES) | IC50 (full-length LRRK2 G2019S) [µM] | IC50 [1] [µM] |
| --- | --- | --- |
| COCn1cc(Nc2ncc3cc(C#N)n([C@H]4COC[C@@H]4C)c3n2)c(O[C@@H]2CO[C@H]2C)n1 (mixture of isomers) [Example 39, 2-[[1-(methoxymethyl)-3-[(trans)-2-methyloxetan-3-yl]oxy-pyrazol-4-yl]amino]-7-[(3R,4R)-4-methyltetrahydrofuran-3-yl]pyrrolo[2,3-d]pyrimidine-6-carbonitrile] | 0.008 | 0.01 |
| CO[C@H]1COC[C@H]1n1c(C#N)cc2cnc(Nc3cn(C4COC4)nc3OC(C)C(F)(F)F)nc21 (mixture of isomers) [Example 54, 7-((3R,4R)-4-Methoxytetrahydrofuran-3-yl)-2-((1-(oxetan-3-yl)-3-((1,1,1-trifluoropropan-2-yl)oxy)-1 H-pyrazol-4-yl)amino)-7H-pyrrolo[2,3-d]pyrimidine-6-carbonitrile] | 0.027 | 0.061 |
| [2H]C([2H])([2H])n1cc(Nc2ncc3cc(C#N)n(C4COCC4C)c3n2)c(OC2CCC2(C)O)n1 (mixture of isomers) [Example 142, 2-((3-((1S,2S)-2-hydroxy-2-methylcyclobutoxy)-1-(methyl-d3)-1 H-pyrazol-4-yl)amino)-7-((3R,4R)-4-methyltetrahydrofuran-3-yl)-7H-pyrrolo[2,3-d]pyrimidine-6-carbonitrile and 2-((3-((1 R,2R)-2-hydroxy-2-methylcyclobutoxy)-1-(methyl-d3)-1 H-pyrazol-4-yl)amino)-7-((3R,4R)-4-methyltetrahydrofuran-3-yl)-7H-pyrrolo[2,3-d]pyrimidine-6-carbonitrile] | 0.005 | 0.003 |
| COC[C@H](C)n1c(C#N)cc2cnc(Nc3cn(CCO)nc3OC3CCOC3)nc21 (mixture of isomers) [Example 151, 2-((1-(2-hydroxyethyl)-3-((tetrahydrofuran-3-yl)oxy)-1 H-pyrazol-4-yl)amino)-7-((S)-1-methoxypropan-2-yl)-7H-pyrrolo[2,3-d]pyrimidine-6-carbonitrile] | 0.027 | 0.031 |
| CC(C(F)F)n1cc(Nc2ncc3cc(C#N)n([C@H]4COC[C@@H]4C)c3n2)c(OC2CC2)n1 (mixture of isomers) [Example 43, 2-((3-cyclopropoxy-1-(1,1-difluoropropan-2-yl)-1H-pyrazol-4-yl)amino)-7-((3R,4R)-4-methyltetrahydrofuran-3-yl)-7H-pyrrolo[2,3-d]pyrimidine-6-carbonitrile] | 0.001 | 0.002 |
| CC(C)Oc1nn(C)cc1Nc1ncc2cc(C#N)n([C@@H]3COC[C@@H]3C)c2n1 (racemic) [Example 47, 2-((3-isopropoxy-1-methyl-1 H-pyrazol-4-yl)amino)-7-((cis)-4-methyltetrahydrofuran-3-yl)-7H-pyrrolo[2,3-d]pyrimidine-6-carbonitrile] | 0.031 | 0.036 |
| CO[C@@H]1COC[C@H]1n1c(C#N)cc2cnc(Nc3cn(C)nc3OC3COC3)nc21 (racemic) [Example 70, 7-((trans)-4-methoxytetrahydrofuran-3-yl)-2-((1-methyl-3-(oxetan-3-yloxy)-1 H-pyrazol-4-yl)amino)-7H-pyrrolo[2,3-d]pyrimidine-6-carbonitrile] | 0.16 | 0.27 |
| CO[C@@H]1COC[C@H]1n1c(C#N)cc2cnc(Nc3ccc(C(C)(C)O)cc3OC3COC3)nc21 (racemic) [Example 71, 2-((4-(2-hydroxypropan-2-yl)-2-(oxetan-3-yloxy)phenyl)amino)-7-((trans)-4-methoxytetrahydrofuran-3-yl)-7H-pyrrolo[2,3-d]pyrimidine-6-carbonitrile] | 0.069 | 0.109 |
| COC[C@H](C)n1c(C#N)cc2cnc(Nc3cn(C)nc3O[C@@H]3CO[C@H]3C)nc21 (single isomer, unassigned) [Example 87] |  | 0.008 |
| [2H]C([2H])([2H])n1cc(Nc2ncc3cc(C#N)n([C@@H](C)COC)c3n2)c(O[C@@H]2CO[C@H]2C)n1 (single isomer, unassigned) [Example 89] |  | 0.009 |
